Source: ChEMBL document CHEMBL4765275, “Discovery of novel tertiary amide derivatives as NEDDylation pathway activators to inhibit the tumor progression in vitro and in vivo” (Eur J Med Chem, 2020)

Columns and labels:
Format in all cases: functional, cell-based
MGC-803 = assay: Antiproliferative activity against human MGC-803 cells measured after 48 hrs by MTT assay; conditions: MGC-803, 48 h
MCF7 = assay: Antiproliferative activity against human MCF7 cells measured after 48 hrs by MTT assay; conditions: MCF7, 48 h
PC-3 = assay: Antiproliferative activity against human PC-3 cells measured after 48 hrs by MTT assay; conditions: PC-3, 48 h

Compound	IC50 (MGC-803)	IC50 (MCF7)	IC50 (PC-3)
COc1ccc(CN(C(=O)Cc2cccs2)c2ccc(OC)c(OC)c2)cc1	> 80 µM	> 80 µM	> 80 µM
COc1ccc(CN(C(=O)C(c2ccccc2)c2ccccc2)c2cc(OC)c(OC)c(OC)c2)cc1	> 80 µM	> 80 µM	> 80 µM
COc1ccc(CN(C(=O)CSc2nncs2)c2cc(OC)c(OC)c(OC)c2)cc1	–	19.4 µM	–
COc1ccc(CN(C(=O)Cc2ccc(C)cc2C)c2cc(OC)c(OC)c(OC)c2)cc1	28.7 µM	69.4 µM	52.8 µM
COc1ccc(CN(C(=O)Cc2cccs2)c2ccccc2)cc1	> 80 µM	> 80 µM	> 80 µM
COc1ccc(CN(C(=O)COc2cc(OC)c(OC)c(OC)c2)c2cc(OC)c(OC)c(OC)c2)cc1	31.2 µM	40.7 µM	> 80 µM
COc1cc(N(Cc2ccc(C(C)(C)C)cc2)C(=O)Cc2cccs2)cc(OC)c1OC	22.8 µM	19.4 µM	13.8 µM
COc1cc(N(Cc2ccc(C)cc2)C(=O)Cc2cccs2)cc(OC)c1OC	0.84 µM	1.56 µM	16.9 µM
COc1cc(N(Cc2ccc(Cl)cc2)C(=O)Cc2cccs2)cc(OC)c1OC	14.3 µM	8.78 µM	19.3 µM
COc1ccc(CC(=O)N(Cc2ccc(OC)cc2)c2cc(OC)c(OC)c(OC)c2)cc1	4.37 µM	0.18 µM	1.49 µM
COc1cc(N(Cc2cccc(F)c2)C(=O)Cc2cccs2)cc(OC)c1OC	13.1 µM	27.3 µM	21.4 µM
COc1cc(N(Cc2ccc(Br)cc2)C(=O)Cc2cccs2)cc(OC)c1OC	5.32 µM	6.43 µM	7.68 µM
COc1cc(N(Cc2ccccc2)C(=O)Cc2cccs2)cc(OC)c1OC	22 µM	48.8 µM	33.9 µM
COc1cc(N(Cc2cccc(Cl)c2)C(=O)Cc2cccs2)cc(OC)c1OC	37 µM	42.4 µM	77.9 µM
O=c1[nH]cc(F)c(=O)[nH]1 [FLUOROURACIL]	–	–	17.3 µM
COc1ccc(CN(C(=O)Cc2cccs2)c2cc(Cl)c(Cl)cc2Cl)cc1	> 80 µM	> 80 µM	> 80 µM
COc1ccc(CN(C(=O)CSc2nc3ccccc3o2)c2cc(OC)c(OC)c(OC)c2)cc1	–	6.68 µM	–
COc1ccc(CN(C(=O)Cc2ccccc2)c2cc(OC)c(OC)c(OC)c2)cc1	6.82 µM	2.68 µM	0.85 µM
COc1cc(N(Cc2cccc(C)c2)C(=O)Cc2cccs2)cc(OC)c1OC	19.7 µM	42.6 µM	26.9 µM
COc1ccc(CN(C(=O)Cc2ccc(F)cc2)c2cc(OC)c(OC)c(OC)c2)cc1	1.81 µM	2.52 µM	2.38 µM
COc1ccc(CN(C(=O)COc2ccccc2)c2cc(OC)c(OC)c(OC)c2)cc1	22.7 µM	64.1 µM	19.7 µM
COc1ccc(CN(C(=O)COc2cccc(Cl)c2)c2cc(OC)c(OC)c(OC)c2)cc1	68.7 µM	55.2 µM	30.5 µM
COc1ccc(CN(C(=O)Cc2cccs2)c2cc(OC)c(OC)c(OC)c2)cc1N	0.1 µM	2.48 µM	1.65 µM
COc1cc(N(Cc2ccc(F)cc2)C(=O)Cc2cccs2)cc(OC)c1OC	32.6 µM	50.9 µM	23.1 µM
COc1ccc(CN(C(=O)CSc2nnnn2C)c2cc(OC)c(OC)c(OC)c2)cc1	–	14.4 µM	–
COc1ccc(CN(C(=O)COc2ccc(OC)cc2)c2cc(OC)c(OC)c(OC)c2)cc1	6.27 µM	46.4 µM	66.4 µM
COc1ccc(CN(C(=O)Cc2cccc(OC)c2)c2cc(OC)c(OC)c(OC)c2)cc1	1.06 µM	1.33 µM	3.04 µM
COc1ccc(CN(C(=O)CSc2ccccn2)c2cc(OC)c(OC)c(OC)c2)cc1	–	16.1 µM	–
COc1ccc(CN(C(=O)Cc2cccs2)c2ccc(OC)cc2)cc1	> 80 µM	> 80 µM	> 80 µM
